Source: US11834401B2, “Treating and preventing diseases by modulating cell mechanics” (THE JOHNS HOPKINS UNIVERSITY, priority 2013, dated 2023)

Assays:
[1] = tested on: Panc10.05 tissue spheroids; assay: Tissue spheroid dissemination and cortical actin structure; type: cell-based, human
Experimental: Tissue spheroids were grown by plating Panc10.05 cells on a drop of Matrigel (Becton-Dickinson) in an 8-well slide chamber (6,500 cells per well) and grown in RPMI 1640 media (2% serum, 2% matrigel, and 10 ng/ml EGF). Spheroids were grown for 14 days with regular media changes, then aspirated off the surface of the matrigel, washed with ice-cold PBS with mild centrifugation ([…], 5 min). For all 2D spreading assays, spheroids were then plated on 50 µg/ml collagen-coated 8-well coverslips (MatTek) and incubated for 48 hrs in complete PANC media with 500 nM 4-HAP or PBS control. For 3D invasion assays, spheroids were resuspended in a 1.5 mg/ml collagen solution (Life Technologies) and then plated in 8-well chambered coverslips. […] All spheroid samples were fixed in 4% paraformaldehyde for 15 min at 25° C. and permeabilized in 0.1% Triton X-100 for 15 min at 25° C. The actin cytoskeleton was visualized with rhodamine-phalloidin ([…]) for 30 min. Two-dimensional spreading was visualized with Olympus Spinning disk microscope (40× oil objective, 1.30NA) or Nikon-NSIM (100× objective, 1.4NA) with an Andor EMCCD camera controlled by NIS-Elements software. Three-dimensional invasion through collagen was visualized with an Olympus Spinning Disk microscope (20× air, 0.4NA).
Quantification of 2D spheroids plated on a thin layer of collagen was performed using a custom-designed Matlab script (Mathworks, Natick, Mass.). A maximum intensity projection of 20 z-slices was extracted from each of the images and converted to 16-bit grayscale before enhancing the pixel intensity (Matlab command: histeq). The enhanced image was then segmented into foreground and background using the Chan-Vese method (activecountour), followed by filtering of small regions (bwareaopen), and morphological erosion (imerode). The boundary from this object was then obtained (bwboundary) and average background intensity was subtracted. This method was used for more than 80% of the images. […] This option allowed the user to select a region of interest surrounding the outer edge of the spheroid (roipoly). Anything outside of this boundary was masked and subsequently not considered (regionfill). Following this, a similar binarization/background subtraction regime was implemented on the unmasked region and the boundary was traced.
For each point along the boundary, a line perpendicular to the edge was computed and the intensity along this line was used to linearize the cortex. The resultant matrix was converted into a grayscale image. The Hough Transform was used to determine the continuity of the actin belt along the edge of the cortex. Linearized cortex images were binarized using a threshold chosen to best differentiate belt from non-belt for each set of images (imbinarize), followed by filtering of small regions (bwareaopen), and morphological dilation (imdilate). The Hough Transform was performed on this image (hough), and Hough peaks and lines identified (houghpeaks, houghlines). These were used to create a continuity score defined by (E Hough line lengths)/(number of lines+length of image). In this metric, higher scores indicate a more continuous actin belt at the cortex. Additionally, we computed: a coarseness index of the cortex (std2) to describe actin distribution, the percentage of white pixels of the binarized image to characterize actin belt thickness, and the ratio of white pixels to gray pixels (greater than 0.15) to describe the distribution of fluorescence.

[2] = tested on: ASPC-1 cells; assay: Matrigel invasion assay; type: cell-based, human; details: transwells with 2 mg/ml Matrigel
Experimental: Cells were treated as in migration assay, but plated in transwells containing 2 mg/ml Matrigel (BD Biosciences).

With CC(=O)c1ccc(O)cc1 [4-HAP, 4-hydroxyacetophenone] the dissemination from spheroids ([1]; NMIIA knockdown, 3D collagen I, 24 hours) was “decreased”, the dissemination from spheroids ([1]; control knockdown, 3D collagen I, 24 hours) was “decreased” and the “actin band continuity score” value ([1]; control spheroids) was “decreased upon treatment with 4-HAP”. The “cortex coverage by actin bands” value ([1]; control spheroids) was “decreased cortex coverage”, the “cortex coverage by actin bands” value ([1]; myo IIA knockdowns) was “the coverage increased” and the “cortex coverage by actin bands” value ([1]; myo IIC knockdowns) was “unaffected by the treatment of 4-HAP”. For the same molecule, the “increase in median percentage staining of actin at tissue edge” value ([1]; myosin IIA knockdown spheroids, 2D) was 2 fold, the dissemination from spheroids ([1]; myosin IIC-depleted spheroids) was “no effect was observed” and the “actin band continuity score” value ([1]; shIIA spheroids, p=0.01) was “increased significantly”. For the same molecule, the actin belt formation ([1]; when myosin IIC is present) was “Actin belts are formed” and the in vitro invasion [2] was “dose-dependent decrease”.
